Test results: patent US4668677A, “4-phenylphthalazine derivatives, their preparation and their use as pharmaceuticals” (Mitsubishi Chemical Industries Limited, priority 1984, dated 1987)

Tests used:
blood platelets [1] = experiment: Activity to inhibit the aggregation of blood platelets (collagen, ex vivo after oral administration); assay type: in vivo, rat (male Wistar-ST strain); conditions: Rattus norvegicus, Platelet, po, read-out: Inhibitory rate of blood platelet aggregation
Method: Male Wistar-ST strain rats of an average body weight of 250 g were used, a group consisting of 8 animals. The test compound indicated in the following Table 1 was orally administered to rats in the form of a suspension in a 1% tragacanth aqueous solution at 4 ml/Kg (the test compound 10 mg/Kg).
One hour after the administration, blood samples were obtained from the carotid artery by means of a cannule. […] Tubes were turned upside-down and then subjected to centrifugation at 200×g over 15 minutes to assign the supernatant as a platelet-rich plasma (PRP). The residue was further centrifuged at […] over 15 minutes to assign the supernatant as a platelet-poor plasma (PPP). These supernatants were applied for determining the ability to aggregate blood platelets. […] As an aggregation inducing agent, collagen (availale from Hormon-chemie A.G.) was used at a concentration of 7 to 10 μg/ml.
Inhibitory rate to aggregate blood platelets was calculated according to the following equation: [formula] A: […] in the group to which the 1% tragacanth solution alone was given (Control)
B: Aggregation rate in the group to which the tragacanth solution of the test compound was given.

blood platelets [2] = experiment: Activity to inhibit the blood platelet adhesion (glass bead method); assay type: cell-based, rat (male Wistar-ST strain); conditions: Rattus norvegicus, read-out: Inhibitory rate of blood platelet adhesion
Method: As experimental animals, there were used male Wistar-ST strain rats of an average body weight of 250 g.
Blood samples were obained from carotid arteries by means of a cannule and immediately admixed with sodium citrate at a volume ratio of 1/10. The mixture was centrifuged at 200×g over 15 minutes to collect the supernatant (platelet-rich plasma: PRP). The PRP was then centrifuged at 2000×g over 15 minutes and the supernatant was removed to give blood platelet pellet.
To the resultant blood platelet pellet was added a 15 mM tris.HCl buffer solution with EDTA (pH 7.4) to resuspend blood platelets therein and then one applied centrifugation at 2000×g over 15 minutes and the supernatant was removed. The resultant washed blood platelets were added to a 0.3 mM tris.HCl buffer solution with CaCl2 (pH 7.4) to resuspend blood platelets therein, whereby there was prepared a blood platelet suspension adjusted to five hundred thousand platelets/μl. To 2 ml of the blood platelet suspension were added 2 μl of a methanolic solution of each test compound and incubation was effected for 15 minutes. Then blood platelet adhesion was determined according to a glass bead method by using a timing blood suction apparatus for determining the blood platelet adhesion.
The number of blood platelets was counted by means of a blood platelet counter.
Inhibitory rate of blood platelet adhesion was calculated according to the following equation: [formula] A: Blood platelet number in the blood platelet suspension passed through a control column
B: Blood platelet number in the blood platelet suspension passed through a bead-packing column

mice = experiment: Anti-thrombotic activity: arachidonic acid-induced mortality in mice; assay type: in vivo, mouse (male ICR-JCL strain); conditions: for Survival time of dead mice: arachidonic acid 100 mg/Kg i.v.; for Mortality: arachidonic acid 100 mg/Kg i.v. after 1 hour
Method: Male ICR-JCL strain mice with an average body weight of about 25 g and male New Zealand White rabbits with an average body weight of about 3 Kg were used.
Where mice were used as experimental animals, a suspension of the test compound indicated in Table 3 in a 1% tragacanth aqueous solution was orally administered to animals at 20 ml/Kg. One hour after the administration, an arachidonic acid (PL-biochemical Co., Inc.) solution dissolved in a 0.1M sodium carbonate aqueous solution was intravenously given at 100 mg/Kg. Evaluation of activity was effected with the time from the administration of arachidonic acid up to the death of animals as well as mortality.

[3] = system: PGI2-like substance in vessel walls; experiment: Influence on production of PGI2-like substance in vessel walls (ADP aggregation with carotid artery ring); assay type: in vivo, rat (male Wistar-ST strain); conditions: for Aggregation rate with ADP when carotid artery ring added: 1 hour, 10 μM ADP
Method: Male Wistar-ST strain rats with an average weight of about 250 g were used as experimental animals. After fasted for 18 hours, 6.3 ml of blood sample were obtained from corotid artery and immediately thereafter 0.7 ml of an anticoagulant (3.8% sodium citrate) was added and the sample was centrifuged at 200×g over 15 minutes to take platelet-rich plasma (PRP). The same procedures as above were carried out, using 5 to 6 rats, whereby 5-6 ml as normal PRP were stored and employed.
Reference aggregation values were determined by pouring 1 ml each of stored PRP into plastic test tubes, incubating them at 22° C. for 10 minutes and then determining aggregation rate. As an aggregation inducing agent, one employed 10 μM ADP (available from Sigma Co., Inc.)
A suspension of the compound of this invention or aspirin in a 1% aqueous solution of tragacanth was orally given to animals. After 1 hour, 5 mg of carotid artery were cut out in a ring shape and placed into a plastic test tube together with 1 ml of stored PRP. After incubated at 22° C. for 10 minutes, aggregation rate was determined.
Also, non-medicated groups were similarly treated and aggregation rate was determined.
Determination of blood platelet aggregation rate was made by means of an aggregometer.

blood platelet = conditions: Drugs, 18, 439 (1979); cited from earlier work
blood flow = conditions: Prostaglandins, 25, 549 (1983); cited from earlier work
brain = conditions: Am. J. Physiol., 243, H416 (1982); cited from earlier work

| Structure (SMILES) | inhibition at 30 mg/kg (blood platelets [1]) [%] | inhibition at 100 mg/kg (blood platelets [1]) [%] | inhibition at 300 µM (blood platelets [2]; 3·10^-4 M) [%] | inhibition at 30 µM (blood platelets [2]; 3·10^-5 M) [%] | inhibition at 3 µM (blood platelets [2]; 3·10^-6 M) [%] | inhibition at 0.3 µM (blood platelets [2]; 3·10^-7 M) [%] | Survival time of dead mice (mice; 100 mg/Kg oral) [s] | Mortality (mice; 100 mg/Kg oral) [%] | Survival time of dead mice (mice; 300 mg/Kg oral) [s] | Mortality (mice; 300 mg/Kg oral) [%] | Aggregation rate with ADP when carotid artery ring added ([3]; 30 mg/Kg oral) [%] | Aggregation rate with ADP when carotid artery ring added ([3]; 100 mg/Kg oral) [%] | inhibition of ADP aggregation with PGI2-like substances existing in carotid artery ring (in words) ([3]; from Table 5) | activity to inhibit blood platelet aggregation (in words) (blood platelet) | activity to increase blood flow (in words) (blood flow) | topical blood flow in brain (in words) (brain) |
| --- | --- | --- | --- | --- | --- | --- | --- | --- | --- | --- | --- | --- | --- | --- | --- | --- |
| CC(=O)Oc1ccccc1C(=O)O [Aspirin, aspirin] | 67.5 | 100 | 4 | 5.3 | 8.4 | 3.5 | 322 ± 103 | 100 | 180 ± 67 | 37.5 | 45.7 | 58.3 | said phenomena could not be observed | show the activity to inhibit blood platelet aggregation | does not show at all the activity to increase blood flow | – |
| COc1ccc2c(c1)c(CC(=O)O)c(C)n2C(=O)c1ccc(Cl)cc1 [indomethacin] | – | – | – | – | – | – | – | – | – | – | – | – | – | show the activity to inhibit blood platelet aggregation | does not show at all the activity to increase blood flow | did decrease a topical blood flow in brain |
